From patent publication US20040266885A1, “Wood preservative compositions” (priority 2001, published 2004)
Values joined by “and” are separate entries in the source; they are usually repeats but may differ in a detail not shown here. Identical values can stand only once. “Also recorded” adds a separate entry of the source.

Test system: C. formosanus
Assay: Laboratory termite test, modified ASTM 3345-74, soil/sand culture, NaOH carrier, blocks not leached; for Termite Attack Rating: key: Score 0: No attack; Score 1: Attempted attack; Score 2: Slight attack; Score 3: Average attack; Score 4: Strong attack
Assay type: in vivo
Set-up: Termite Attack Rating / Mean Rating (termite attack): scale not given here
Conditions: for Mean Rating (termite attack): mean of 4 specimens; for Mean Rating (termite attack) / Termite Attack Rating: 4 weeks soil/sand culture; for Termite Attack Rating: single specimen
Experimental: A further experiment was undertaken according to the modified ASTM 3345-74 test detailed in Example 2 with the following 6 changes to the protocol:
1. The solutions tested were as follows:
2. The incubation substrate was a soil/sand mixture (1:1) to which had been added 75 ml of de-ionised water. This substrate was chosen as being more representative of the laboratory conditions under which the wild caught termites (C. formosanus) were maintained.
3. The treated timber samples were positioned on plastic mesh on top of the soil substrate. This method of placement is that used in European Standard EN 117 and is more representative of the feeding conditions of the wild caught termites maintained in the laboratory.
4. 250 termites were used in each incubation vessel.
5. The wood block specimens were not subjected to a leaching process.
6. Evidence of termite tunneling activity and mortality was determined at completion of the incubation period only (4 weeks) and no examinations were undertaken for surface activity.

CC(C)(c1cc(Br)c(O)c(Br)c1)c1cc(Br)c(O)c(Br)c1 [TBBA, Tetrabromobisphenol A] was tested, and the “termiticidal and termite repellent activity (conclusion)” value was “significant termiticidal and termite repellent activity”, the “termite survival / mortality at the end of the test period” value (4 weeks) was “the majority of the termites were still active at the end of the test period” and the “Tunneling Activity” value (4 weeks, solution conc. 1%) was “Yes”. For the same compound, the “Visible Mortality” value (4 weeks, solution conc. 1%) was “No”, the “Tunneling Activity” value (4 weeks, solution conc. 3%) was “Yes” and the “Visible Mortality” value (4 weeks, solution conc. 3%) was 1-33%. For the same compound, the “Tunneling Activity” value (4 weeks, solution conc. 5%) was “Yes”, the “Visible Mortality” value (4 weeks, solution conc. 5%) was 1-33% and the “Tunneling Activity” value (4 weeks, solution conc. 7%) was “Yes”. The “Visible Mortality” value (4 weeks, solution conc. 7%) was 1-33%, the “Tunneling Activity” value (4 weeks, solution conc. 10%) was “Yes” and the “Visible Mortality” value (4 weeks, solution conc. 10%) was 1-33%. The “prevention of termite attack / restriction of termite damage” value (all concentrations used (1-10%), 4 weeks) was “significant attack was prevented by all concentrations; also recorded: a very significant effect in restricting termite damage”, the “toxic value, upper (lowest concentration which protects the wood)” value (mean loading, solution concentration 3% (TBBF) or 1%, not leached) was 7.27 kg/m^3 and the “Mean Rating (termite attack)” value (solution conc. 1%) was 1.00. For the same compound, the “Termite Attack Rating” value (solution conc. 1%) was 1, the “Mean Rating (termite attack)” value (solution conc. 3%) was 1.00 and the “Termite Attack Rating” value (solution conc. 3%) was 1. For the same compound, the “Mean Rating (termite attack)” value (solution conc. 5%) was 1.00, the “Termite Attack Rating” value (solution conc. 5%) was 1 and the “Mean Rating (termite attack)” value (solution conc. 7%) was 0.75. For the same compound, the “Termite Attack Rating” value (solution conc. 7%) was 1 and 0, the “Mean Rating (termite attack)” value (solution conc. 10%) was 1.00 and the “Termite Attack Rating” value (solution conc. 10%) was 1. The “repellent effect (soil covering of test specimens)” value (specimens treated with 5, 7 and 10% solutions only partially soil covered) was “acting as a repellent throughout the trial period”.
